Measured values as given in patent US20040136975A1 (priority 2004, published 2004).

How the values were obtained:
transformed cells = settings: cited from earlier work
VEGF = settings: cited from earlier work
[1] = tested on: non-transformed (pDCR) NIH 3T3 cells; assay: cells; assay type: cell-based; settings: Mus musculus, NIH3T3, 48 h, read-out: inhibition of growth
transfected EC cells = settings: cited from earlier work

## COc1cccc(-c2cc(=O)c3ccccc3o2)c1N [PD98059]
Transformed cells
  morphological reversion of transformed cells: causes morphological reversion
VEGF
  up-regulation of VEGF by heregulin: not
[1]
  inhibition at 50 µM: 50%

## COc1cc(/C=C/C(=O)CC(=O)/C=C/c2ccc(O)c(OC)c2)ccc1O [curcumin]
Transfected EC cells
  basal motility and motility stimulated by JNK agonists: decreased

## SB203580
VEGF
  up-regulation of VEGF by heregulin: blocks

## trans-retinoic acid
Transfected EC cells
  basal motility and motility stimulated by JNK agonists: decreased
